# Laboratory results: patent EP2276481B1, “USE OF BENZO-FUSED HETEROCYCLE SULFAMIDE DERIVATIVES FOR THE TREATMENT OF ANXIETY” (Janssen Pharmaceutica, N.V., priority 2008, dated 2009)
# What was measured:
# [1] = system: Male Rj:NMRI mice; assay: Elevated Plus Maze, Mouse (EPM); type: in vivo; conditions: for Closed Arms Number of Entries % change / Open Arms Number of Entries % change / Open Arms Time Spent (sec) % change: change from vehicle control
# Source text: Rodents avoid open spaces (in the case of the assay apparatus, the open arms of an elevated plus-maze). Compounds which have anti-anxiety activity increase exploratory activity of the rodents in the open arms of the elevated plus-maze. The EPM assay was run according to the procedure as described by Handley and Mithani (Naunyn. Schmied. Arch. Pharmacol., 327, 1-5, 1984).
# Male Rj:NMRI mice, weighing 20 - 30 g (max. range per experiment = 5 g) at the beginning of the experiments, were obtained from Elevage Janvier, 53940 Le Genest-Saint-Isle, France and used in the assay. The animals were delivered to the laboratory at least 5 days before the experiments during which time they were acclimatized to laboratory conditions. The mice were housed in groups of 10 in Macrolon cages (25 x 19 x 13 cm) on wood litter (Litalabo-SPPS, 95100 Argenteuil, France) with free access to food (Code 113 - SAFE, 89290 Augy, France) and water until tested (or as indicated otherwise). The animal house was maintained under artificial lighting (12 hours) between 7:00 and 19:00 in a controlled ambient temperature of 21 ± 3°C, and relative humidity between 30-80%.
# The elevated plus-maze consisted of 4 arms of equal length and width (14 x 5 cm) arranged in the form of a plus sign (+). Two opposite arms were enclosed by 12 cm high walls (closed arms). The 2 other arms had no walls (open arms). The maze was raised 56 cm above the floor. A mouse was placed in the centre of the plus-maze and left to explore the maze for 5 minutes. The number of entries into the open and closed arms and the time spent in the open arms was recorded. Ten (10) mice were used for each study group. The test was performed blind.
# (§1) Compound #8 was evaluated at 30 mg/kg, 60 mg/kg and 120 mg/kg doses, administered p.o. 60 minutes before the test, and compared with a vehicle control group. Compound #8 was homogenized and dispersed using a mortar and a pestle in 0.2% hydroxypropylmethylcellulose (HPMC) in distilled water, which served as the vehicle. As a positive control, Clobazam (16 mg/kg p.o.), was administered under the same experimental conditions. Clobazam as URBANYL®tablets (16 mg/kg p.o.) were dispersed in 0.2% hydroxypropylmethylcellulose (HPMC) in distilled water for administration. Each experiment therefore included 5 study groups of 10 mice each.
# Data were analyzed by comparing groups treated with compound #8 with groups treated with vehicle control using unpaired Student's t tests. Table 4: Effect of Compound #8 in EPM
# [2] = system: Mouse; assay: Four Plate Test, Mouse; type: in vivo; conditions: for Number of Punished Crossings % Change: change from vehicle control
# Source text: The Four Plate assay was run according to the procedure as described by Aron et al (Neuropharmacology, 10, 459-469, 1971). In this assay, the rodent experiences an electric shock upon crossing from one plate to another. Anxiolytics (such as benzodiazepines) increase the number of punished crossings.
# Animals were placed individually in a white plastic enclosure containing a floor consisting of 4 metal plates connected to an electric shock generator (Apelex : Type 011346). The mouse was left to explore freely for 15 seconds. Then, every time the mouse crossed from one plate to another, it received a weak electric shock (2.5 mA, 1.5 s). The number of punished crossings were counted during a 1 minute test. Ten (10) mice were used for each study group. The test was performed blind.
# as §1, with “(32” for “(16”
# Data were analyzed by comparing groups treated with compound #8 with groups treated with vehicle control using unpaired Student's t tests. Table 5: Effect of Compound #8 in Four Plate
# [3] = 16 mg/kg p.o., positive control, same experimental conditions, t test vs vehicle p < 0.001
# [4] = 16 mg/kg p.o., positive control
# [5] = 30 mg/kg p.o. 60 minutes before the test, 5 minutes in maze, t test vs vehicle (NS)
# [6] = 30 mg/kg p.o. 60 minutes before the test
# [7] = 60 mg/kg p.o. 60 minutes before the test, 5 minutes in maze, t test vs vehicle p < 0.01
# [8] = 60 mg/kg p.o. 60 minutes before the test
# [9] = 120 mg/kg p.o. 60 minutes before the test, 5 minutes in maze, t test vs vehicle p < 0.05
# [10] = 120 mg/kg p.o. 60 minutes before the test
structure (smiles),measurement,setting,value
"CN1C(=O)CC(=O)N(c2ccccc2)c2cc(Cl)ccc21 [CLOBAZAM, Clobazam, reference compound]",Open Arms Number of Entries Mean ± S.E.M.,[1]; [3],11.7 ± 1.1 (***)
same,Open Arms Time Spent (sec) Mean ± S.E.M.,[1]; [3],120.1 ± 13.1 s
same,Closed Arms Number of Entries Mean ± S.E.M.,"[1]; 16 mg/kg p.o., positive control, same experimental conditions, t test vs vehicle p < 0.05",11.9 ± 1.5 (*)
same,Closed Arms Number of Entries % change,[1]; [4],+59%
same,Open Arms Number of Entries % change,[1]; [4],+350%
same,Open Arms Time Spent (sec) % change,[1]; [4],+567%
same,Number of Punished Crossings Mean ± S.E.M.,"[2]; 32 mg/kg p.o., positive control, same experimental conditions, t test vs vehicle p < 0.001",9.9 ± 1.2 (***)
"NS(=O)(=O)NC[C@H]1COc2cc(Cl)ccc2O1 [Compound #8, (2S)-(-)-N-(6-Chloro-2,3-dihydro-benzo[1,4]dioxin-2-ylmethyl)-sulfamide]",Closed Arms Number of Entries Mean ± S.E.M.,[1]; [5],8.5 ± 0.9 (NS)
same,Open Arms Number of Entries Mean ± S.E.M.,[1]; [5],3.9 ±0.7 (NS)
same,Open Arms Time Spent (sec) Mean ± S.E.M.,"[1]; 30 mg/kg p.o. 60 minutes before the test, 5 minutes in maze, t test vs vehicle p < 0.01",44.6 ± 8.0 s
same,Closed Arms Number of Entries % change,[1]; [6],+13%
same,Open Arms Number of Entries % change,[1]; [6],+50%
same,Open Arms Time Spent (sec) % change,[1]; [6],+148%
same,Closed Arms Number of Entries Mean ± S.E.M.,[1]; [7],10.3 ± 0.8 (**)
same,Open Arms Number of Entries Mean ± S.E.M.,[1]; [7],5.9 ± 1.0 (**)
same,Open Arms Time Spent (sec) Mean ± S.E.M.,[1]; [7],54.1 ± 10.6 s
same,Closed Arms Number of Entries % change,[1]; [8],+37%
same,Open Arms Number of Entries % change,[1]; [8],+127%
same,Open Arms Time Spent (sec) % change,[1]; [8],+201%
same,Open Arms Time Spent (sec) Mean ± S.E.M.,"[1]; 120 mg/kg p.o. 60 minutes before the test, 5 minutes in maze, t test vs vehicle p < 0.01",38.6 ± 5.2 s
same,Closed Arms Number of Entries Mean ± S.E.M.,[1]; [9],10.0 ± 1.1 (*)
same,Open Arms Number of Entries Mean ± S.E.M.,[1]; [9],4.5 ± 0.6 (*)
same,Closed Arms Number of Entries % change,[1]; [10],+33%
same,Open Arms Number of Entries % change,[1]; [10],+73%
same,Open Arms Time Spent (sec) % change,[1]; [10],+114%
same,Number of Punished Crossings Mean ± S.E.M.,"[2]; 30 mg/kg p.o. 60 minutes before the test, 1 minute test, t test vs vehicle (NS)",4.5 ± 0.6 (NS)
same,Number of Punished Crossings % Change,[2]; [6],+15%
same,Number of Punished Crossings Mean ± S.E.M.,"[2]; 60 mg/kg p.o. 60 minutes before the test, 1 minute test, t test vs vehicle (NS)",4.5 ± 0.3 (NS)
same,Number of Punished Crossings % Change,[2]; [8],+15%
same,Number of Punished Crossings Mean ± S.E.M.,"[2]; 120 mg/kg p.o. 60 minutes before the test, 1 minute test, t test vs vehicle p < 0.01",6.6 ± 0.6 (**)
same,Number of Punished Crossings % Change,[2]; [10],+69%
